Drawing on patent publication US12029744B2, “Bicyclic heteroaryl derivatives as ectonucleotide pyrophosphatase phosphodiesterase 1 inhibitors” (Riboscience LLC, priority 2019, dated 2024), this text covers Ki for 34 compounds.

Molecules are shown by their SMILES. Structures can show the parent of a compound that is named as a salt. Some results are limits rather than exact numbers.

The first assay has as its target T1, ENPP1 (Homo sapiens, UniProt P22413).
T1 sequence (P22413 1-925): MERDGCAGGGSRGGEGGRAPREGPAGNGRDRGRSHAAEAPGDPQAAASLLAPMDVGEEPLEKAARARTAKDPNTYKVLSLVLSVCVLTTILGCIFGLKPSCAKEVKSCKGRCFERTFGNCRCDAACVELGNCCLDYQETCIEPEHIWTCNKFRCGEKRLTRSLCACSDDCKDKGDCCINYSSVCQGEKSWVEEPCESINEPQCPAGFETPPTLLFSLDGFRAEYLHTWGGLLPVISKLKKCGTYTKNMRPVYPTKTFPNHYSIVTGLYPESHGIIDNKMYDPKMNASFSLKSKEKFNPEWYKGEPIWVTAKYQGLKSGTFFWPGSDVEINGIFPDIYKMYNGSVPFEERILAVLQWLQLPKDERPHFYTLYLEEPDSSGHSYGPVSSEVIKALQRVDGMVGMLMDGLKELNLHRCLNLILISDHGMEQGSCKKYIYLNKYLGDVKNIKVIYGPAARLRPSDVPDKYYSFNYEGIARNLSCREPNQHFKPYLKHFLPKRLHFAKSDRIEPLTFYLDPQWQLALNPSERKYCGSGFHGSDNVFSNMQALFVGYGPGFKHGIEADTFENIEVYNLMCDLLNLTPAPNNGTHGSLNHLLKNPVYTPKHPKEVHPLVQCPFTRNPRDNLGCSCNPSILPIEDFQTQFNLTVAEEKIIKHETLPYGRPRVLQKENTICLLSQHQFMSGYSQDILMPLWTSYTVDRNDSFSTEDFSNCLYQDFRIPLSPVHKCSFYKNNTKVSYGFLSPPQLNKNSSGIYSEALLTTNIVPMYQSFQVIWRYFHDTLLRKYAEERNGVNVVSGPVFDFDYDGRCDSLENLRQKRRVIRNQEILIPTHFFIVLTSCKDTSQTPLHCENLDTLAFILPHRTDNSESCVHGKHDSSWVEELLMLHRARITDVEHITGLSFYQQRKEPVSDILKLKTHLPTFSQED
Kind of assay: Measurement of pNP-TMP hydrolysis by ENPP1 (enzyme activity assay, absorbance at 405 nm). The class given is biochemical.
Conditions: not given
As to the method:
Measurement of pNP-TMP Hydrolysis by ENPP1
p-Nitrophenyl thymidine 5′-monophosphate (pNP-TMP) is a synthesized substrate for ENPP1. The ENPP1 enzyme activity assay with pNP-TMP substrate was conducted as follows:
Incubation of ENPP1 with compounds was set at 25° C. for 10 min. […] For each compound dilution, wells with assay buffer (50 mM Tris-HCl, pH8.8, 250 mM NaCl, 0.1 mg/ml BSA, 1% DMSO) only but no ENPP1 were included as controls for subtraction of test compound derived absorbance at 405 nm.
Absorbance at 405 nm was recorded immediately in kinetic mode by PerkinElmer 2300 Enspire multimode plate reader.
For each inhibitor, the specific ENPP1 activity was calculated using the following equation: ENPP1 activity (pmol/min/μg)=Adjusted Vmax (OD405 nm/min)×conversion factor (pmol/OD405 nm)/amount of enzyme (μg)
Adjusted Vmax=V0×(Km+(S))/(S).
V0=(OD405 nm with ENPP1−OD405 nm ENPP1 blank)/minutes. OD405 nm was plotted, with blank subtracted, against time (minutes), the initial linear rate is V0. […]
The slope is the conversion factor. The percent ENPP1 activity for each sample was calculated using the following equation: % enzyme activity=sample enzyme activity/MAX Activity×100%.
To determine the IC50 for each compound, compound concentration values and percent enzyme activity values were inserted into GraphPad Prism (GraphPad Prism version 7.0 for Windows, GraphPad Software, La Jolla California USA, www.graphpad.com), and Prism's Transform analysis was used to convert the x-axis values (compound concentration) to logarithms. A sigmoidal variable slope nonlinear regression analysis was performed using the following equation: Y=Bottom+(Top−Bottom)/(1+10^[…])).
Compound `NC(=O)c1ccc2c(ncn2Cc2ccc(P(=O)(O)O)cc2)n1` [Compound 138, 4-((5-carbamoylimidazo[4,5-b]pyridin-1-yl)methyl)phenylphosphonic acid] had a Ki of under 100 nM.

Still in this assay, the particulars now being: substrate pNP-TMP 500 μM, KM 232 μM; Ki from IC50 by Cheng-Prusoff; read-out: Ki (pNP-TMP).
`NC(=O)c1nccc2c1ncn2Cc1ccc(B(O)O)cc1` [Compound 96, 4-((4-carbamoylimidazo[4,5-c]pyridin-1-yl)methyl)phenylboronic acid]: the inhibition constant (Ki) is under 10 nM.

With `OB(O)c1ccc(Cn2cnc3c(C(F)F)cccc32)cc1` [Compound 130, 4-((4-(difluoromethyl)-1,3-benzodiazol-1-yl)methyl)phenylboronic acid], the inhibition constant (Ki) is under 1000 nM. Still for that read-out and setting: as for `OB(O)c1ccc(Cn2cnc3nc(O)ccc32)cc1` [Compound 127], the figure is under 10 nM. Same read-out and setting: as for `O=P(O)(O)c1ccc(Cn2ncc3c(O)nccc32)cc1` [Compound 64, 4-((4-hydroxypyrazolo[4,3-c]pyridin-1-yl)methyl)phenylphosphonic acid], the figure is under 100 nM; as for `N#Cc1ccc2c(c1)ncn2Cc1ccc(P(=O)(O)O)cc1` [Compound 24, (4-((5-cyano-1H-benzo[d]imidazol-1-yl)methyl)phenyl)phosphonic acid], under 1000 nM; as for `NC(=O)c1ccc2c(cnn2Cc2ccc(P(=O)(O)O)cc2)c1` [Compound 65, 4-((5-carbamoylindazol-1-yl)methyl) phenylphosphonic acid], under 100 nM. For the compound `Cc1nc2cc(C(N)=O)ccc2n1Cc1ccc(P(=O)(O)O)cc1` [Compound 136, 4-((5-carbamoyl-2-methyl-1,3-benzodiazol-1-yl)methyl)phenylphosphonic acid], the inhibition constant (Ki) was under 100 nM. In the case of `O=c1[nH]cnc2c1c(F)cn2Cc1ccc(P(=O)(O)O)cc1` [Compound 134, 4-((5-fluoro-4-oxo-3H-pyrrolo[2,3-d]pyrimidin-7-yl)methyl)phenylphosphonic acid], the Ki was under 100 nM. The same measure, in the same setting: as for `CC(C)c1nc2c(O)nccc2n1Cc1ccc(B(O)O)cc1` [Compound 75, 4-((4-hydroxy-2-isopropylimidazo[4,5-c]pyridin-1-yl)methyl) phenylboronic acid], the figure is under 100 nM. Still for that read-out and setting: as for `CCc1nc2ccnc(O)c2n1Cc1ccc(B(O)O)cc1` [Compound 74, 4-((2-ethyl-4-hydroxyimidazo[4,5-c]pyridin-3-yl)methyl)phenylboronic acid], the figure is under 1000 nM; as for `CCc1nc2c(O)nccc2n1Cc1ccc(B(O)O)cc1` [Compound 73, 4-((2-ethyl-4-hydroxyimidazo [4,5-c]pyridin-1-yl)methyl) phenylboronic acid], under 100 nM. Turning to `O=c1[nH]cnc2c1c(F)cn2Cc1ccc(B(O)O)cc1` [Compound 63, (4-((5-fluoro-4-oxo-3,4-dihydro-7H-pyrrolo[2,3-d]pyrimidin-7-yl)methyl)phenyl) boronic acid], the Ki is under 100 nM. On to `COc1cccc2c1nc(C)n2Cc1ccc(B(O)O)cc1` [Compound 95, 4-((4-methoxy-2-methyl-1,3-benzodiazol-1-yl)methyl) phenylboronic acid], for which the inhibition constant Ki is under 100 nM. Regarding `COc1cc2c(cc1C(N)=O)ncn2Cc1ccc(B(O)O)cc1` [Compound 32, 4-((5-carbamoyl-6-methoxy-1,3-benzodiazol-1-yl)methyl)phenylboronic acid], the Ki was under 100 nM. Same read-out and setting: as for `NC(=O)c1ccc2c(cnn2Cc2ccc(B(O)O)cc2)c1` [Compound 34, 4-((5-carbamoylindazol-1-yl)methyl)phenylboronic acid], the figure is under 100 nM; as for `Nc1nc2c(ncn2Cc2ccc(B(O)O)cc2)c(=O)[nH]1` [Compound 5, 4-((2-amino-6-oxo-1H-purin-9-yl)methyl)phenylboronic acid], under 100 nM; as for `OB(O)c1ccc(Cn2ccc3c(O)nccc32)cc1` [Compound 9, (4-((4-hydroxy-1H-pyrrolo[3,2-c]pyridin-1-yl)methyl)phenyl)boronic acid], under 10 nM.

Regarding `NC(=O)c1ccc2c(ncn2Cc2ccc(B(O)O)cc2)c1N` [Compound 105, 4-((4-amino-5-carbamoyl-1,3-benzodiazol-1-yl)methyl)phenylboronic acid], the Ki was under 100 nM.

Regarding `NC(=O)c1ccc2c(c1)c(Cl)cn2Cc1ccc(P(=O)(O)O)cc1` [Compound 143, 4-((5-carbamoyl-3-chloroindol-1-yl)methyl)phenylphosphonic acid], the Ki is under 1000 nM. Still for that read-out and setting: as for `COc1ccc2c(ncn2Cc2ccc(B(O)O)cc2)n1` [Compound 125, 4-((5-methoxyimidazo[4,5-b]pyridin-1-yl)methyl)phenylboronic acid], the figure is under 10 nM; as for `NC(=O)c1ccc2c(ccn2Cc2ccc(P(=O)(O)O)cc2)c1` [Compound 142, 4-((5-carbamoylindol-1-yl)methyl)phenylphosphonic acid], under 1000 nM. Still for that read-out and setting: next, `N#Cc1ccc2c(ncn2Cc2ccc(B(O)O)cc2)n1` [Compound 70, 4-((5-cyanoimidazo[4,5-b]pyridin-1-yl)methyl)phenylboronic acid]: under 10 nM. Still for that read-out and setting: next, `COc1nccc2c1cnn2Cc1ccc(B(O)O)cc1` [Compound 98, 4-((4-methoxypyrazolo [4,3-c]pyridin-1-yl)methyl) phenylboronic acid]: under 1000 nM. On to `CC(C)c1nc2nc(C(N)=O)ccc2n1Cc1ccc(B(O)O)cc1` [Compound 146, 4-((5-carbamoyl-2-isopropylimidazo[4,5-b]pyridin-1-yl)methyl)phenylboronic acid], for which the Ki is under 10 nM. On the same count and under the same terms, next, `NC(=O)c1ccc2c(c1)ncn2Cc1ccc(B(O)O)cc1` [Compound 17, 4-((5-carbamoyl-1,3-benzodiazol-1-yl)methyl)phenylboronic acid trifluoroacetic acid salt]: under 10 nM; `O=P(O)(O)c1ccc(Cn2ccc3c(O)nccc32)cc1` [Compound 56, (4-((4-hydroxy-1H-pyrrolo[3,2-c]pyridin-1-yl)methyl)phenyl)phosphonic acid]: under 100 nM. Still for that read-out and setting: next, `N#Cc1ccc2c(c1)ncn2Cc1ccc(B(O)O)cc1` [Compound 15, 4-((5-cyano-1,3-benzodiazol-1-yl)methyl)phenylboronic acid]: under 10 nM. For `Cc1nc2cc(C(N)=O)ccc2n1Cc1ccc(B(O)O)cc1` [Compound 36, (4-((5-carbamoyl-2-methyl-1H-benzo[d]imidazol-1-yl)methyl)phenyl)boronic acid], the inhibitory constant (Ki) was under 10 nM. The same measure, in the same setting: next, `NC(=O)c1ccc2c(c1)ncn2Cc1ccc(P(=O)(O)O)cc1` [Compound 49, 4-((5-carbamoyl-1,3-benzodiazol-1-yl)methyl)phenylphosphonic acid]: under 1000 nM; `Cc1cc2nc(C(N)=O)ccc2n1Cc1ccc(B(O)O)cc1` [Compound 77, 4-((5-carbamoyl-2-methylpyrrolo[3,2-b]pyridin-1-yl)methyl) phenylboronic acid]: under 10 nM. On the same count and under the same terms, next, `O=c1[nH]cnc2c1ncn2Cc1ccc(B(O)O)cc1` [Compound 3, 4-((6-oxo-1H-purin-9-yl)methyl)phenylboronic acid]: under 1000 nM; `Cc1nc2nc(C(N)=O)ccc2n1Cc1ccc(B(O)O)cc1` [Compound 144, (4-((5-carbamoyl-2-methyl-1H-imidazo[4,5-b]pyridin-1-yl)methyl)phenyl)boronic acid]: under 10 nM; `COC(=O)c1ccc2c(c1)ncn2Cc1ccc(B(O)O)cc1` [Compound 41, 2,2,2-trifluoroacetic acid--(4-((5-(methoxycarbonyl)-1H-benzo[d]imidazol-1-yl)methyl)phenyl)boronic acid (1/1)]: under 100 nM.

In general, Ki refers to the dissociation constant of the complex between target and ligand, obtained from inhibition or displacement.
